Reference: paper PMC8597786 (Antimicrobial Agents and Chemotherapy, 2021)
Where “and” joins values, the source holds several entries; their conditions need not be identical. Equal values may be shown once. Read-outs that look alike come from different tables or passages of the source.

Columns and labels:
[1] = target: T1, SARS-CoV-2 spike RBD/ACE2 (Severe acute respiratory syndrome coronavirus 2, UniProt P0DTC2); experiment: biochemical; type: binding, SARS-CoV-2 (USA-WA1/2020)
T1 construct: a SARS-CoV-2 RBD protein derived from USA-WA1/2020 and containing a C-terminal His tag; a full-length ACE2 peptide with a C-terminal Fc tag; purchased Sino Biological

[2] = test system: Vero-E6 cells; experiment: Resazurin cell viability assay in uninfected cells; type: cell-based
Experimental: (§1) A total of 20,000 Vero-E6 cells were plated in 96-well plates and incubated overnight before addition of compounds at defined concentrations; 0.1% DMSO vehicle control was added to wells in the absence of test compounds. All experimental conditions were performed in duplicate. Cells were then incubated at 37°C and 5% CO2 for 4 days before addition of resazurin (Sigma-Aldrich) to a final concentration of 20 μg/ml. Cells were incubated for an additional 4 h before fluorescence intensity was measured using a ClarioStar plate reader (BMG Labtech). Background fluorescence was subtracted from wells containing resazurin and D10+ medium but no cells.

[3] = test system: VSVΔG-S-GFP pseudovirus containing SARS-CoV-2 spike from B.1.1.7; type: cell-based, SARS-CoV-2 B.1.1.7; conditions: for % GFP+ nuclei, Average: 50 μM; for Infected cells at 50 μM (%), VSVΔG-S-GFP pseudovirus B.1.1.7: 24 h
[4] = 200 mg/kg; cited from earlier work
[5] = test system: VSVΔG-S-GFP pseudovirus containing SARS-CoV-2 spike from B.1.351; type: cell-based, SARS-CoV-2 B.1.351; conditions: for % GFP+ nuclei, Average: 50 μM; for Infected cells at 50 μM (%), VSVΔG-S-GFP pseudovirus B.1.351: 24 h
[6] = 100 mg/kg; cited from earlier work
[7] = 200 mg/kg; cited from earlier work; remark: listed apart in the source
[8] = test system: VSVΔG-S-GFP pseudovirus containing SARS-CoV-2 spike (USA-WA1/2020)
[9] = Resazurin cell viability assay in uninfected cells; type: cell-based; conditions: African green monkey, uninfected Vero-E6 cells, resazurin, 4 days
Experimental: as §1

[10] = target: T2, PD-1/PD-L1 (Homo sapiens, UniProt Q9NZQ7); experiment: PD-1/PD-L1 AlphaScreen interaction assay; type: binding
T2 construct: purchased Sino Biological
T2 sequence (Q9NZQ7 19-239 limits assumed): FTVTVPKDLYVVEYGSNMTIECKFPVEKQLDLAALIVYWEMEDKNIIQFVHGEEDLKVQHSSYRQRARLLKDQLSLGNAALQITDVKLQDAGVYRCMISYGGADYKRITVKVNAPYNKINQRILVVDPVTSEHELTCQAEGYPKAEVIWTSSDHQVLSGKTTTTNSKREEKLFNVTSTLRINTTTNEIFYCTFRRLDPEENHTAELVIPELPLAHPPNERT
Experimental: PD-1 binding to PD-L1 was also determined using AlphaScreen technology. […] Next, 5 μl of PD-L1-Fc/protein A acceptor beads was added first to the plate, followed by 100 nl of test compound prepared as described above, followed by 5 μl of PD-1-His/nickel chelate donor beads. For each experiment, all conditions were performed in duplicate. Following 2 h of incubation at room temperature, data were collected as described above and normalized to percentage inhibition, where 100% equaled the AlphaScreen signal in the absence of PD-1-His, and 0% equaled the AlphaScreen signal in the presence of both proteins and 0.1% DMSO alone.

[11] = target: T3, SARS-CoV-2 M^pro (Severe acute respiratory syndrome coronavirus 2, UniProt P0DTD1); experiment: M^pro enzymatic assay (FRET fluorogenic peptide substrate); type: biochemical
T3 construct: QHD43415.1; amino acids [aa]; 3264 to 3567; HIS-SUMO (N, cleaved yes); made in house; host or cells: E. coli BL21(DE3)

[12] = test system: SARS-CoV-2 (BetaCov isolate); conditions: supernatant viral RNA by quantitative PCR after 48 h, read-out: EC50 in SARS-CoV-2-infected Vero-E6 cells; cited from earlier work
[13] = test system: RBD with ACE2; conditions: read-out: IC50, inhibition of binding of RBD with ACE2; cited from earlier work
[14] = test system: SARS-CoV-2; conditions: read-out: EC50, SARS-CoV-2 replication; cited from earlier work
[15] = read-out: IC50 for Spike/ACE2 AlphaScreen

| Molecule | % GFP+ nuclei, Average [3] [%] | Infected cells at 50 μM (%), VSVΔG-S-GFP pseudovirus B.1.1.7 [3] | % GFP+ nuclei, Average [5] [%] | Infected cells at 50 μM (%), VSVΔG-S-GFP pseudovirus B.1.351 [5] | IC50 [1] [µM] | Selectivity index [1] | % GFP+ nuclei, Average ([8]; 50 μM) [%] | Infected cells at 50 μM (%), VSVΔG-S-GFP pseudovirus WA1/2020 ([8]; 24 h) | CC50 at 4 days [9] [µM] | IC50 [10] [µM] | IC50 [11] [µM] | further results |
| --- | --- | --- | --- | --- | --- | --- | --- | --- | --- | --- | --- | --- |
| Cc1c(COc2cc(OCc3cccc(C#N)c3)c(CN3C[C@H](O)C[C@@H]3C(=O)O)cc2Cl)cccc1-c1ccc2c(c1)OCCO2 [BMS-1166, reference compound] | – | – | – | – | – | – | – | – | – | – | – | IC50 [1, 15]: > 100 µM |
| CC(C)C[C@H](NC(=O)OCc1ccccc1)C(=O)N[C@@H](CC1CCNC1=O)C(O)S(=O)(=O)O (stereo partly shown) [GC-376, reference compound] | – | – | – | – | – | – | – | – | – | – | – | CC50 ([2]; resazurin, 4 days): > 10 µM |
| Oc1ccc([C@@H]2c3c(O)cc(O)cc3[C@@H]3c4c(cc(O)cc4[C@H]2[C@@H]2c4cc(O)cc5c4[C@@H](c4cc(O)cc(O)c4[C@H]2c2ccc(O)cc2)[C@H](c2ccc(O)cc2)O5)O[C@H]3c2ccc(O)cc2)cc1 [Hopeaphenol, (–)-hopeaphenol] | 1.83 | 34.1 ± 13.6% and 34.1% | 0.93 | 20.4 ± 2.4% and 20.4% | 0.11 | 257.3 | 0.69 | 28.2 ± 1.2% and 28.2% | > 100 | 28.3 | 42.5 | Plasma triglyceride elevation in olive oil-treated mice [4]: inhibit plasma triglyceride elevation; Effect against LPS-induced liver injury in mice [6]: hepatoprotective effects; Plasma glucose in sucrose-loaded mice [7]: reduce plasma glucose |
| CCC(CC)COC(=O)[C@H](C)N[P@](=O)(OC[C@H]1O[C@@](C#N)(c2ccc3c(N)ncnn23)[C@H](O)[C@@H]1O)Oc1ccccc1 [Remdesivir, remdesivir, reference compound] | – | – | – | – | – | – | – | – | > 10 | – | – | – |
| Oc1ccc(/C=C/c2cc(O)cc(O)c2)cc1 [Resveratrol, resveratrol, reference compound] | – | – | – | – | > 100 | – | 2.36 | 96.3 ± 14.7% and 96.3% | ~100 | – | – | EC50 [12]: 10.7 µM; Total cell nuclei, % of nuclei observed in untreated, infected cells ([8]; 50 μM, 24 h): 60.3 ± 7.0% |
| OC[C@H]1O[C@@H](Oc2cc3c4c(c2)[C@@H]([C@@H]2c5cc(O)cc6c5[C@@H](c5cc(O)cc(O)c5[C@H]2c2ccc(O)cc2)[C@H](c2ccc(O)cc2)O6)[C@H](c2ccc(O)cc2)c2c(O)cc(O)cc2[C@H]4[C@H](c2ccc(O)cc2)O3)[C@H](O)[C@@H](O)[C@@H]1O [Vatalbinoside A, vatalbinoside A] | 2.35 | 43.8 ± 3.4% and 43.8% | 1.87 | 41.1 ± 2.6% and 41.1% | 0.24 | 92.9 | 0.99 | 40.4 ± 16.7% and 40.4% | > 100 | 22.3 | 68.7 | – |
| Oc1ccc([C@@H]2c3c(O)cc(O)cc3[C@@H]3c4c(cc(O)c5c4[C@@H]2[C@H](c2ccc(O)cc2)[C@H]5c2cc(O)cc4c2[C@@H](c2cc(O)cc(O)c2)[C@H](c2ccc(O)cc2)O4)O[C@H]3c2ccc(O)cc2)cc1 [Vaticanol B, vaticanol B] | 2.02 | 37.7 ± 4.1% and 37.7% | 3.29 | 72.3 ± 7.3% and 72.3% | 0.067 | 247.8 | 2.05 | 83.7 ± 4.9% and 83.7% | > 100 | 16.6 | 47.6 | – |
| Oc1ccc([C@H]2Oc3cc(O)cc([C@@H]4[C@H](c5cc(O)cc(O)c5)[C@@H](c5ccc(O)cc5)O[C@H]4c4ccc(O)cc4)c3[C@@H]2c2cc(O)c3c(c2)[C@@H](c2cc(O)cc(O)c2)[C@H](c2ccc(O)cc2)O3)cc1 [kobophenol A] | – | – | – | – | – | – | – | – | – | – | – | IC50 [13]: 1.8 µM; EC50 [14]: 71.6 µM |
| REGN10933 | – | – | – | – | – | – | – | – | – | – | – | IC50 [1, 15]: 0.00018 µM; Cytotoxicity by resazurin staining ([2]; 4 days of treatment): no evidence of cytotoxicity |
